Source: paper PMC3164320 (Journal of medicinal chemistry, 2011)

Tested on: HIV-1LAI
Assay: Antiviral MTT assay in MT-2 cells exposed to HIV-1LAI
Type: cell-based

Row | Structure (SMILES) | fold loss of antiviral activity compared to 22
1 | CC(C)CN(C[C@@H](O)[C@H](Cc1ccccc1)NC(=O)O[C@@H]1C[C@@H]2[C@H](O)CO[C@@H]2C1)S(=O)(=O)c1ccc(N)cc1 [Inhibitor 23, (3S,3aR,5R,6aR)-3-Hydroxyhexahydro-2H-cyclopenta[b]furan-5-yl [(2S,3R)-4-(4-Amino-N-isobutylphenylsulfonamido)-3-hydroxy-1-phenylbutan-2-yl]carbamate] | 3 fold
2 | COc1ccc(S(=O)(=O)N(CC(C)C)C[C@@H](O)[C@H](Cc2ccccc2)NC(=O)O[C@@H]2C[C@@H]3[C@H](OC)CO[C@@H]3C2)cc1 [Inhibitor 25, (3S,3aS,5R,6aR)-3-Methoxyhexahydro-2H-cyclopenta[b]furan-5-yl [(2S,3R)-3-Hydroxy-4-(N-iso-butyl-4-methoxyphenylsulfonamido)-1-phenylbutan-2-yl]carbamate] | ~5 fold
